Measurements reported in patent US5385894A, “Disubstituted 6-aminoquinazolinones” (Merck & Co., Inc., priority 1994, dated 1995).

Assay: log P (Table 1)
Assay type: physicochemical

Row | SMILES | logP | log P
1 | CCCc1nc2ccc(N(Cc3ccccc3)C(=O)c3ccc(O)cc3)cc2c(=O)n1Cc1ccc(-c2ccccc2-c2nn[nH]n2)cc1 [Example 147] | 4 | –
2 | CCc1nc2ccc(N(Cc3ccccc3)C(=O)c3ccco3)cc2c(=O)n1Cc1ccc(-c2ccccc2-c2nnn[nH]2)cc1 [Example 122] | 3.9 | –
3 | CCCc1nc2ccc(N(CC(C)C)C(=O)c3ccccc3)cc2c(=O)n1Cc1ccc(-c2ccccc2-c2nnn[nH]2)cc1 [Example 102] | 4.5 | –
4 | CCCc1nc2ccc(N(CC)C(=O)c3cccs3)cc2c(=O)n1Cc1ccc(-c2ccccc2-c2nnn[nH]2)cc1 [Example 124] | 3.8 | –
5 | CCC(C)c1nc2ccc(N(Cc3ccccc3)C(=O)c3ccccc3)cc2c(=O)n1Cc1ccc(-c2ccccc2-c2nn[nH]n2)cc1 (stereo not shown) [Example 100] | 4.9 | –
6 | CCCCCN(C(=O)c1ccc(F)cc1)c1ccc2nc(CCC)n(Cc3ccc(-c4ccccc4-c4nn[nH]n4)cc3)c(=O)c2c1 [Example 43] | 5.2 | –
7 | CCCc1nc2ccc(N(CC(=O)O)C(=O)c3ccccc3)cc2c(=O)n1Cc1ccc(-c2ccccc2-c2nnn[nH]2)cc1 [Example 120] | 2.1 | –
8 | CCc1nc2ccc(N(Cc3ccccc3)C(=O)c3cccs3)cc2c(=O)n1Cc1ccc(-c2ccccc2-c2nn[nH]n2)cc1 [Example 118] | – | 4.1
9 | CCCc1nc2ccc(N(Cc3ccc(C(=O)O)cc3)C(=O)c3ccccc3)cc2c(=O)n1Cc1ccc(-c2ccccc2-c2nn[nH]n2)cc1 [Example 182] | 2.4 | –
10 | CCCc1nc2ccc(N(Cc3ccccc3)C(=O)c3ccccc3OC)cc2c(=O)n1Cc1ccc(-c2ccccc2-c2nn[nH]n2)cc1 [Example 126] | 5 | –
11 | CCCc1nc2ccc(N(Cc3ccc(C(=O)OC)cc3)C(=O)c3ccccc3)cc2c(=O)n1Cc1ccc(-c2ccccc2-c2nn[nH]n2)cc1 [Example 183] | 4.4 | –
12 | CCc1nc2ccc(N(CC=C(C)C)C(=O)c3ccccc3)cc2c(=O)n1Cc1ccc(-c2ccccc2-c2nn[nH]n2)cc1 [Example 85] | – | 4.2
13 | CCCCCN(C(=O)c1ccc(OCc2ccccc2)cc1)c1ccc2nc(CCC)n(Cc3ccc(-c4ccccc4-c4nnn[nH]4)cc3)c(=O)c2c1 [Example 128] | > 5.7 | –
14 | CCCCCN(C(=O)c1ccc([S+](C)[O-])cc1)c1ccc2nc(CCC)n(Cc3ccc(-c4ccccc4-c4nn[nH]n4)cc3)c(=O)c2c1 (stereo not shown) [Example 81] | 4.3 | –
15 | CCCc1nc2ccc(N(Cc3cccnc3)C(=O)c3ccc(O)cc3)cc2c(=O)n1Cc1ccc(-c2ccccc2-c2nn[nH]n2)cc1 [Example 181] | 2.8 | –
16 | CCCc1nc2ccc(N(C)C(=O)c3cccs3)cc2c(=O)n1Cc1ccc(-c2ccccc2-c2nnn[nH]2)cc1 [Example 114] | 3.4 | –
17 | CCCOC(=O)N(Cc1cccnc1)c1ccc2nc(CCC)n(Cc3ccc(-c4ccccc4-c4nn[nH]n4)cc3)c(=O)c2c1 [Example 158] | 3.8 | –
18 | CCCCCN(C(=O)c1cccs1)c1ccc2nc(CCC)n(Cc3ccc(-c4ccccc4-c4nnn[nH]4)cc3)c(=O)c2c1 [Example 113] | 5.1 | –
19 | CCCc1nc2ccc(N(Cc3ccccn3)C(=O)c3ccccc3)cc2c(=O)n1Cc1ccc(-c2ccccc2-c2nn[nH]n2)cc1 [Example 137] | 3.4 | –
20 | Cc1nc2ccc(N(Cc3ccccc3)C(=O)c3ccncc3)cc2c(=O)n1Cc1ccc(-c2ccccc2-c2nnn[nH]2)cc1 [Example 107] | 2.9 | –
21 | Cc1nc2ccc(N(Cc3ccccc3Cl)C(=O)c3ccncc3)cc2c(=O)n1Cc1ccc(-c2ccccc2-c2nnn[nH]2)cc1 [Example 110] | 3.1 | –

Row | SMILES | logP | log P
22 | CC(C)c1nc2ccc(N(Cc3ccccc3Cl)C(=O)C3CC3)cc2c(=O)n1Cc1ccc(-c2ccccc2-c2nn[nH]n2)cc1 [Example 94] | 4.8 | –
23 | CCCCCN(C(=O)c1ccc(Cl)cc1)c1ccc2nc(CCC)n(Cc3ccc(-c4ccccc4-c4nn[nH]n4)cc3)c(=O)c2c1 [Example 37] | > 6 | –
24 | CCCCN(C(=O)c1ccc(F)cc1)c1ccc2nc(CCC)n(Cc3ccc(-c4ccccc4-c4nn[nH]n4)cc3)c(=O)c2c1 [Example 44] | 4.7 | –
25 | CCCc1nc2ccc(N(CCC)C(=O)c3ccc(F)cc3)cc2c(=O)n1Cc1ccc(-c2ccccc2-c2nn[nH]n2)cc1 [Example 90] | 4.3 | –
26 | CCCc1nc2ccc(N(Cc3ccccc3)C(=O)c3ccccc3)cc2c(=O)n1Cc1ccc(-c2ccccc2-c2nn[nH]n2)cc1 [Example 36] | 4.5 | –
27 | CCCc1nc2ccc(N(CC)C(=O)c3ccco3)cc2c(=O)n1Cc1ccc(-c2ccccc2-c2nnn[nH]2)cc1 [Example 125] | 3.5 | –
28 | CCCCC(=O)N(Cc1ccccc1)c1ccc2nc(CCC)n(Cc3ccc(-c4ccccc4-c4nn[nH]n4)cc3)c(=O)c2c1 [Example 42] | 5.4 | –
29 | CCCCCN(C(=O)c1ccccc1)c1ccc2nc(CCC)n(Cc3ccc(-c4ccccc4NS(=O)(=O)C(F)(F)F)cc3)c(=O)c2c1 [Example 104] | 5.7 | –
30 | CCCc1nc2ccc(N(CCC)C(=O)c3ccccc3OC)cc2c(=O)n1Cc1ccc(-c2ccccc2-c2nnn[nH]2)cc1 [Example 127] | 4.1 | –
31 | CCc1nc2ccc(N(Cc3ccccc3)C(=O)c3ccncc3)cc2c(=O)n1Cc1ccc(-c2ccccc2-c2nn[nH]n2)cc1 [Example 75] | – | 3.4
32 | CCCc1nc2ccc(N(Cc3ccncc3)C(=O)OCCOC)cc2c(=O)n1Cc1ccc(-c2ccccc2-c2nn[nH]n2)cc1 [Example 160] | 2.7 | –
33 | CCCc1nc2ccc(N(Cc3ccc(F)cc3)C(=O)N(C)C(C)C)cc2c(=O)n1Cc1ccc(-c2ccccc2-c2nn[nH]n2)cc1 [Example 174] | 4.8 | –
34 | CCCc1nc2ccc(N(Cc3ccccc3)C(=O)Cn3ccnc3)cc2c(=O)n1Cc1ccc(-c2ccccc2-c2nn[nH]n2)cc1 [Example 132] | 3.6 | –
35 | CCCc1nc2ccc(N(CCC)C(=O)c3ccc(OCc4ccccc4)cc3)cc2c(=O)n1Cc1ccc(-c2ccccc2-c2nnn[nH]2)cc1 [Example 129] | 5.5 | –
36 | Cc1nc2ccc(N(Cc3ccccc3Cl)C(=O)c3ccccc3)cc2c(=O)n1Cc1ccc(-c2ccccc2-c2nn[nH]n2)cc1 [Example 106] | 3.8 | –
37 | CCCCCN(C(=O)c1ccc(Cl)cc1)c1ccc2nc(COC)n(Cc3ccc(-c4ccccc4-c4nnn[nH]4)cc3)c(=O)c2c1 [Example 121] | 4.6 | –
38 | CCCc1nc2ccc(N(C)C(C)=O)cc2c(=O)n1Cc1ccc(-c2ccccc2S(=O)(=O)NC(=O)C2CC2)cc1 [Example 108] | 2.9 | –
39 | CCCc1nc2ccc(N(Cc3ccncc3)C(=O)c3ccccc3)cc2c(=O)n1Cc1ccc(-c2ccccc2-c2nn[nH]n2)cc1 [Example 138] | 3.4 | –
40 | Cc1nc2ccc(N(Cc3ccccc3)C(=O)c3ccccc3)cc2c(=O)n1Cc1ccc(-c2ccccc2-c2nnn[nH]2)cc1 [Example 69] | – | 3.5
41 | CCCc1nc2ccc(N(Cc3ccccc3)C(=O)c3ccc(C(=O)O)cc3)cc2c(=O)n1Cc1ccc(-c2ccccc2-c2nn[nH]n2)cc1 [Example 180] | 2.9 | –
42 | CCCc1nc2ccc(N(Cc3ccccn3)C(=O)c3ccco3)cc2c(=O)n1Cc1ccc(-c2ccccc2-c2nn[nH]n2)cc1 [Example 148] | 3.2 | –

Row | SMILES | logP | log P
43 | CCc1nc2ccc(N(Cc3ccccc3)C(=O)c3ccccc3)cc2c(=O)n1Cc1ccc(-c2ccccc2-c2nnn[nH]2)cc1 [Example 57] | 4.1 | –
44 | CCCCN(C(=O)c1ccc(O)cc1)c1ccc2nc(CCC)n(Cc3ccc(-c4ccccc4-c4nn[nH]n4)cc3)c(=O)c2c1 [Example 144] | 4.2 | –
45 | CCCc1nc2ccc(N(Cc3ccccc3)C(=O)c3ccccn3)cc2c(=O)n1Cc1ccc(-c2ccccc2-c2nn[nH]n2)cc1 [Example 140] | – | 3.7
46 | CCCc1nc2ccc(N(Cc3ccccc3)C(=O)c3ccccn3)cc2c(=O)n1Cc1ccc(-c2ccccc2-c2nn[nH]n2)cc1 [Example 136] | 3.8 | –
47 | O=C(c1ccccc1)N(Cc1ccccc1)c1ccc2ncn(Cc3ccc(-c4ccccc4-c4nn[nH]n4)cc3)c(=O)c2c1 [Example 95] | 3.3 | –
48 | CCCc1nc2ccc(N(CCOC)C(=O)c3ccncc3)cc2c(=O)n1Cc1ccc(-c2ccccc2-c2nnn[nH]2)cc1 [Example 119] | 3 | –
49 | CCCCCN(C(=O)c1ccc(S(C)(=O)=O)cc1)c1ccc2nc(CCC)n(Cc3ccc(-c4ccccc4-c4nn[nH]n4)cc3)c(=O)c2c1 [Example 83] | 4.4 | –
50 | CCCOC(=O)N(Cc1ccccc1)c1ccc2nc(CCC)n(Cc3ccc(-c4ccccc4-c4nnn[nH]4)cc3)c(=O)c2c1 [Example 17] | 5 | –
51 | CCCc1nc2ccc(N(Cc3ccccc3)C(=O)N(C)CC)cc2c(=O)n1Cc1ccc(-c2ccccc2-c2nn[nH]n2)cc1 [Example 30] | 4.3 | –
52 | CCCc1nc2ccc(N(Cc3ccccc3)C(=O)c3ccncc3)cc2c(=O)n1Cc1ccc(-c2ccccc2-c2nn[nH]n2)cc1 [Example 139] | 3.7 | –
53 | CCCOC(=O)N(Cc1ccccn1)c1ccc2nc(CCC)n(Cc3ccc(-c4ccccc4-c4nn[nH]n4)cc3)c(=O)c2c1 [Example 159] | 3.9 | –
54 | CCCc1nc2ccc(N(Cc3ccccc3)C(=O)CN3CCN(C(=O)OC(C)(C)C)CC3)cc2c(=O)n1Cc1ccc(-c2ccccc2-c2nnn[nH]2)cc1 [Example 133] | 5.3 | –
55 | COCc1nc2ccc(N(C)C(=O)OCC(C)C)cc2c(=O)n1Cc1ccc(-c2ccccc2-c2nn[nH]n2)cc1 [Example 161] | 3.7 | –
56 | CCCc1nc2ccc(N(Cc3ccccn3)C(=O)Oc3ccccc3)cc2c(=O)n1Cc1ccc(-c2ccccc2-c2nn[nH]n2)cc1 [Example 135] | 3.6 | –
57 | CCc1nc2ccc(N(Cc3ccccc3I)C(=O)c3ccccc3)cc2c(=O)n1Cc1ccc(-c2ccccc2-c2nn[nH]n2)cc1 [Example 117] | 4.6 | –
58 | CCCc1nc2ccc(N(CCCC(=O)OCC)C(=O)c3ccccc3)cc2c(=O)n1Cc1ccc(-c2ccccc2-c2nnn[nH]2)cc1 [Example 103] | 4.1 | –
59 | CCCCCN(C(=O)c1ccc(O)cc1)c1ccc2nc(CCC)n(Cc3ccc(-c4ccccc4-c4nnn[nH]4)cc3)c(=O)c2c1 [Example 130] | 4.7 | –
60 | CCCc1nc2ccc(N(Cc3ccc(O)cc3)C(=O)c3ccccc3)cc2c(=O)n1Cc1ccc(-c2ccccc2-c2nn[nH]n2)cc1 [Example 179] | 3.6 | –
61 | CCCCCN(C(=O)c1ccccc1)c1ccc2nc(CCC)n(Cc3ccc(-c4ccccc4-c4nn[nH]n4)cc3)c(=O)c2c1 [Example 33, 2-propyl-6-(N-benzoyl-N-pentyl)-amino-3[(2'-(tetrazol-5-yl)biphen-4-yl)methyl]quinazolin-4(3H)-one] | 5.1 | –
